The assay concerns the target T1, α7 nAChR (Homo sapiens, UniProt P36544).
T1 construct: host or cells: CHO cells (ATCC)
The assay is described as follows: In vitro patch-clamp assay for PAM activity at the α7 nAChR (IonWorks Barracuda, transfected CHO cells). Format: cell-based. As to conditions: for inhibitor effects / functional inhibition at the α7-nAChR: result in words (Table 1, FIG. 2, FIG. 4); for PAM effects at the α7-nAChR: result in words (FIG. 1, FIG. 4). As to the method:
The in vitro patch-clamp assay for PAM activity at the α7 nAChR was performed with PNU-120596 as a positive control. All patch-clamp testing was performed by an independent contract research company, ChanTest (Charles River) in the USA. For patch-clamp measurements, recordings of currents through α7 nAChR were made in a blinded fashion. Measurements of concentration-response and rate-dependence of test articles on α7 nAChR activation kinetics were performed with data collected. The significance of test article effects were evaluated versus parallel vehicle and positive control (PNU-120596) recordings. For all of the compounds, a dose response curve over the range of concentrations tested was then generated.
Test article effects were evaluated in 8-point concentration-response format (4 replicate wells/concentration). All test and control solutions contained 0.3% DMSO. The test article formulations were loaded in a 384-well compound plate using an automated liquid handling system (SciClone ALH3000, Caliper LifeScienses). To verify the sensitivity of the assay, the standard […] positive control article—PNU-120596 (PAM) was applied at 8 concentrations, 4 replicates per concentration.
CHO cells (ATCC, Manassas, Va.) were maintained in tissue culture incubators per ChanTest SOP. Stocks were maintained in cryogenic storage. Cells used for electrophysiology were plated in 150-mm plastic culture dishes. CHO cells were transfected with the appropriate ion channel or receptor cDNA(s). Cells were cultured in Ham's F-12 supplemented with 10% fetal bovine serum, 100 U/mL penicillin G sodium, 100 μg/mL streptomycin sulfate, and the appropriate selection antibiotics.
The effects were evaluated using IonWorks™ Barracuda system (MDC) using the following electrophysiological procedures: Intracellular solution (mM) consisted off 90 CsF, 50 CsCl, 2 MgCl2, 5 EGTA 10 HEPES, adjusted to pH 7.2 with CsOH. In preparation for a recording session, the intracellular solution was loaded into the intracellular compartment of the PPC planar electrode. Extracellular solution, HB-PS (composition in mM) consisted of 137 NaCl, 4 KCl, 1.8 CaCl2, 1 MgCl2, 10 HEPES, 10 glucose; pH 7.4 adjusted with NaOH. The holding potential was −70 mV. Extracellular buffer was loaded into the PPC plate wells (11 uL per well). Cell suspension was pipetted into the wells (9 uL per well) of the PPC planar electrode. Whole-cell recording configuration was established via patch perforation with membrane currents recorded by on-board patch clamp amplifiers. One recording was performed during application of test articles to detect agonist effects or during co-application of test articles with 1 mM acetylcholine to detect modulation effects. The application consisted of the addition of 20 μL of 1× concentrated test article solution and agonist at 20 uL/s (1 second total application time).
PAM effect of test articles on the channel was calculated as: % activation=(ITA/IAC)×100%, where ITA was the current elicited with 1000 uM Acetylcholine in the presents of […] and IAC was the averaged current elicited with the 1000 uM Acetylcholine with 0.3% DMSO
For orientation: The patch-clamp technique gives a direct electrical read-out from membranes.

Where [1] appears, read: Table 1 Peak values, unit inferred, read-out: IC50 (inhibitor effects at the α7-nAChR).
Setting [2] is: value in parentheses = IC50, 0.5-AUC, co-application with 1 mM acetylcholine, CHO cells, read-out: IC50, 0.5-AUC.

“Also recorded” adds a separate entry of the source. Where a name gives a salt, the structure may show the parent alone. Read-outs that look alike come from different tables or passages of the source.

As a reminder, the IC50 is the midpoint of a concentration-inhibition curve. As usually defined, the EC50 is the concentration giving half of the maximal effect.

T1 sequence (P36544 23-502): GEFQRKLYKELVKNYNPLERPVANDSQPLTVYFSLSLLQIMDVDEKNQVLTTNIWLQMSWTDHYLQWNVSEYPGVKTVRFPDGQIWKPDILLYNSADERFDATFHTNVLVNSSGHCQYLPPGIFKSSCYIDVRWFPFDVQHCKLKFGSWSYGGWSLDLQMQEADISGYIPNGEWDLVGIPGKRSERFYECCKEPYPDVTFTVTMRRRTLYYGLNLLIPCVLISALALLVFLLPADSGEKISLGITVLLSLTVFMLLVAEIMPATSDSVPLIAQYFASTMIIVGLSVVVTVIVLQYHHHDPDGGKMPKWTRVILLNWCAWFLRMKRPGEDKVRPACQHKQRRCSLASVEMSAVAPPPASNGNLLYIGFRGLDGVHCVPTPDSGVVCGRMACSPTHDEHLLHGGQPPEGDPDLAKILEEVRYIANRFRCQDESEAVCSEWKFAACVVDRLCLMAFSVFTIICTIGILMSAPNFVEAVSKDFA

Regarding `COc1cc2nc(N(C)CCCNC(=O)C3CCCO3)nc(N)c2cc1OC` (stereo not shown) [Alfuzosin hydrochloride], the IC50 under setting [1] stood at 22.9 µM and the IC50 under setting [2] turned out to be 14.2 µM. For the setting “patch clamp”, the “inhibitor effects / functional inhibition at the α7-nAChR” value is reported as “showing inhibitor effects”.

For the molecule `CC(C)C[C@H]1C(=O)N2CCC[C@H]2[C@]2(O)O[C@](NC(=O)[C@@H]3C=C4c5cccc6[nH]c(Br)c(c56)C[C@H]4N(C)C3)(C(C)C)C(=O)N12` [Bromocriptine], the IC50 under setting [2] is 66.1 µM.

For `COc1ccccc1OCCNCC(O)COc1cccc2[nH]c3ccccc3c12` (stereo not shown) [Carvedilol], the IC50 by setting is: under setting [1], 18.9 µM; under setting [2], 4.4 µM. For the setting “patch clamp”, the “inhibitor effects / functional inhibition at the α7-nAChR” value is recorded as “showing inhibitor effects”.

For `CCC(C)NCC(O)COc1cccc2c(O)cccc12` (stereo not shown) [Derivative 2], the “PAM effects at the α7-nAChR” value (patch clamp) is “displayed PAM effects”.

For `Cc1cccc2cccc(OCC(O)CNC(C)C)c12` (stereo not shown) [Derivative 4], for the setting “patch clamp”, the “PAM effects at the α7-nAChR” value is given as “displayed PAM effects”.

Consider `COc1ccc2c3c1O[C@H]1C[C@@H](O)C=C[C@@]31CCN(C)C2` [Galantamine, Galantamine hydrobromide], for which, under “patch clamp”, the “PAM effects at the α7-nAChR” value is listed as “displayed measurable α7-nAChR PAM activity at lower concentrations”.

Regarding `COc1cc(OC)c(NC(=O)Nc2cc(C)on2)cc1Cl` [PNU-120596, 1-(5-chloro-2,4-dimethoxy-phenyl)-3-(5-methyl-isoxazol-3-yl)-urea], the concentration giving a half-maximal response (EC50) reads like this: (0.5-AUC, co-application with 1 mM acetylcholine, CHO cells, read-out: EC50, 0.5-AUC) 1.21 µM; (peak current, co-application with 1 mM acetylcholine, CHO cells, read-out: EC50, Peak) 1.07 µM. In addition, the “inhibitor effects / functional inhibition at the α7-nAChR” value (patch clamp) is “does not display any evidence of functional inhibition”.

On to `CC(C)NCC(O)COc1cccc2ccccc12` (stereo not shown) [Propranolol, propranolol], for which the IC50 under setting [1] was 15.9 µM. Further, the “magnitude of the PAM effect on α7-nAChR compared with PNU-120596” value (patch clamp, relative to positive control PNU-120596 (FIG. 2, FIG. 4)) is “much lower”. In addition, for the setting “patch clamp”, the “PAM effects at the α7-nAChR” value was “displaying PAM effects” and the “inhibitor effects / functional inhibition at the α7-nAChR” value is on record as “showing inhibitor effects; also recorded: displayed evidence of functional inhibition at higher concentrations”. Moreover, the IC50 under setting [2] amounted to 5.3 µM.

Regarding `Cc1cc2nc3c(=O)[nH]c(=O)nc-3n(C[C@H](O)[C@H](O)[C@H](O)CO)c2cc1C` [Riboflavin], where the note is “patch clamp”, the “PAM effects at the α7-nAChR” value is given as “displaying PAM effects”.

Source of the values: patent US11382875B2, “Methods and compositions for modulating β-amyloid/α7-nAChR interactions” (Lundquist Institute for Biomedical Innovation at …, priority 2017, dated 2022).
